Assay results taken from patent US10575526B2 (priority 2004, dated 2020).

Key:
[1] = system: SAR genes, WIR2 (PR5) and WCI3; assay: Time-course Northern blot analysis of SAR gene induction in glyphosate tolerant wheat; settings: leaf tissues of glyphosate tolerant wheat; INA 200 ppm in 0.1% surfactant blank
[2] = system: leaf rust spores (Puccinia triticina); assay: Leaf rust infection of treated glyphosate tolerant wheat in the SAR study; format: in vivo; settings: glyphosate tolerant wheat inoculated one day after treatment; WeatherMAX 0.75 lb/acre, INA 200 ppm
[3] = Glyphosate residue analysis in RR soybean; format: in vivo; settings: 3 × 0.75 lb, V3/R1/PH
Text: (§1) The selection of application rates that are effective for a specific plant pathogen is within the skill of the ordinary agricultural scientist. […] Useful application rates for the glyphosate compositions employed can depend upon all of the above conditions.

[4] = Glyphosate residue analysis in RR corn (GA21); format: in vivo; settings: 2 × 0.75 lb
Text: as §1

[5] = Glyphosate residue analysis in RR cotton; format: in vivo; settings: 3 × 1.5 lb, OT/PD/PH, seed
Text: as §1

[6] = Glyphosate residue analysis in RR canola; format: in vivo; settings: 0.8 lb, seed
Text: as §1

[7] = Glyphosate residue analysis in RR rice; format: in vivo
Text: as §1

[8] = Glyphosate residue analysis in RR wheat; format: in vivo
Text: as §1

[9] = Glyphosate residue analysis in RR sugarbeet; format: in vivo
Text: as §1

[10] = Glyphosate residue analysis in RR potato; format: in vivo; settings: tubers
Text: as §1

Septoria = assay: In vitro fungal cell growth on media containing glyphosate; format: cell-based; settings: crop of interest Wheat
Pseudocercosporella = assay: as above; format: cell-based; settings: crop of interest Wheat
Botrytis = assay: as above; format: cell-based; settings: crop of interest Veg/strawberry
Phytophthora = assay: as above; format: cell-based; settings: crop of interest Potato/soy
Rhizoctonia = assay: as above; format: cell-based; settings: crop of interest Wheat/potato
Fusarium = assay: as above; format: cell-based; settings: crop of interest Wheat/potato
Gaeumannomyces = assay: as above; format: cell-based; settings: crop of interest Wheat
Puccinia = assay: as above; format: cell-based; settings: crop of interest Wheat
Pyricularia = format: cell-based; settings: growth media, crop of interest Rice
Puccinia spores [11] = assay: Tissue glyphosate concentration and disease prevention in glyphosate tolerant wheat; format: in vivo
Method: Four different regimens are employed. […] The inoculated plants are then incubated for 24 hours at 100% relative humidity for germination of the spores. […] Disease conditions are evaluated macroscopically for pustule development and lesion development.

Puccinia spores [12] = assay: Translocation of glyphosate to shielded wheat leaf for leaf rust prevention; format: in vivo
Text: In the data shown in FIG. 1, the top fully expanded wheat leaf was shielded from Roundup® spray (0-1×, 1× at 0.75 lb ae/a) followed by inoculation of wheat rust spores to the shielded leaf at 1 day after treatment (DAT).
14C-glyphosate is sprayed over-the-top to wheat plants using field application conditions and use rates. The top fully-expanded leaf (one leaf) is shielded from the spray (the untreated leaf).

rust spores = assay: Glyphosate as post-infection treatment of glyphosate tolerant wheat; format: in vivo; settings: evaluated 11 DAI
Method: Depending on the treatment to be used, the spores are then allowed to germinate. […] Disease incidence is evaluated 11 DAI.

[13] = system: Asian soybean rust (Phakopsora pachyrhizi); assay: Field observation of Asian soybean rust in glyphosate tolerant soybean; format: in vivo; settings: Brazil
Method: Asian soybean rust is an aggressive foliar disease of soybean that occurs where soybeans are grown in Asia, and more recently, in southern Africa, Paraguay, Argentina and Brazil. Phakopsora pachyrhizi, the fungus that causes Asian soybean rust, has been found in the continental United States. Glyphosate compositions are used to control, prevent or treat disease in glyphosate tolerant soybean plants (RR) under field conditions. A single application rate of Roundup® (1×=0.75 lbs ae/acre or 0.84 kg ae/ha) or multiple applications are applied times to a rust susceptible variety of soybean. The Roundup® treated plants are not treated with any fungicide and allowed to be naturally infected with Asian soybean rust. In addition, glyphosate-tolerant soybean plants can be grown in a greenhouse and manually infected with spores to induced disease infection.
Rust development is delayed 7-10 days in RR soybean (sprayed at ˜V4 stage), as compared to conventional soy. Rust severity is less in RR soybean as compared to conventional soybean in early season observations.

Asian soybean rust [14] = assay: Greenhouse study of glyphosate and Opera fungicide on Asian soybean rust; format: in vivo, Phakopsora pachyrhizi
Asian soybean rust [15] = assay: Field trial of glyphosate and Opera fungicide on Asian soybean rust; format: in vivo, Phakopsora pachyrhizi
Method: A field study was conducted to further confirm the greenhouse study. The same cultivars were planted in three replicated plots and treatments as described in the greenhouse study. […] All treatments were effective in preventing disease on RR8045 cultivar.

[16] = system: Common rust or Southern rust spores (Puccinia sorghi, Puccinia polysora); assay: Field tests of glyphosate on rust diseases of Roundup Ready corn nk603; format: in vivo; settings: 1 to 9 scale
[17] = system: Verticillium wilt (Verticillium dahliae); assay: Verticillium wilt control in Roundup Ready cotton; format: in vivo; settings: three genetic backgrounds, 22 ounces of WeatherMax Roundup at two and five true leaf stage, observed about three and four months after planting, versus adjacent untreated plot
Text: The cotton seeds were planted and the emerged plants were sprayed with 22 ounces of WeatherMax Roundup® at the two and five true leaf stage. […] The treated plants continued to grow compared to the untreated plants that had shut down. […] Cotton plants suffering from other wilt diseases of cotton, especially Fusarium wilt disease, are expected to benefit from treatment with glyphosate.

corn EPSPS [18] = assay: Kinetic studies of EPSPS inhibition by glyphosate; format: biochemical; settings: equivalent of 0.5 μM
Text: Structural studies of EPSPS based on X-ray crystallography have identified key amino acids involved in catalysis.

corn EPSPS [19] = settings: read-out: Ki for glyphosate; cited from earlier work

O=C(O)c1cc(Cl)nc(Cl)c1 [INA, 2,6-dichloro isonicotinic acid]
WCI3 gene induction (Northern blot) [1]: induced
leaf rust infection / resistance [2]: did not confer leaf rust resistance

O=C(O)CNCP(=O)(O)O [glyphosate, N-phosphonomethylglycine]
Gly (ppm) ([3]; forage): 7.60 ppm
Gly (ppm) ([3]; hay): 1.30 ppm
Gly (ppm) ([3]; seed): 0.80 ppm
Gly (ppm) ([4]; V4/V8, forage): 0.73 ppm
Gly (ppm) ([4]; V4/V8, grain): 0.07 ppm
Gly (ppm) ([4]; V4/V8, stover): 1.30 ppm
Gly (ppm) [5]: 1.60 ppm
Gly (ppm) [6]: 0.02 ppm
Gly (ppm) ([7]; 1.5 lb 5 lf, grain): 0.05 ppm
Gly (ppm) ([7]; 1.5 lb 5 lf, straw): 0.05 ppm
Gly (ppm) ([7]; 2 × 1.12 lb, 5 lf/pan ini, grain): 3.00 ppm
Gly (ppm) ([7]; 2 × 1.12 lb, 5 lf/pan ini, straw): 3.10 ppm
Gly (ppm) ([7]; 3 × 1.12 lb, 5 lf/pan ini/PH, grain): 14.80 ppm
Gly (ppm) ([7]; 3 × 1.12 lb, 5 lf/pan ini/PH, straw): 6.90 ppm
Gly (ppm) ([8]; 0.75 lb, 4 lf, forage): 2.30 ppm
Gly (ppm) ([8]; 0.75 lb, 4 lf, grain): 0.50 ppm
Gly (ppm) ([8]; 0.75 lb, 4 lf, hay): 1.20 ppm
Gly (ppm) ([8]; 0.75 lb, 4 lf, straw): 0.50 ppm
Gly (ppm) ([8]; 2 × 0.75 lb, 4 lf/Preboot, forage): 2.60 ppm
Gly (ppm) ([8]; 2 × 0.75 lb, 4 lf/Preboot, grain): 7.50 ppm
Gly (ppm) ([8]; 2 × 0.75 lb, 4 lf/Preboot, hay): 13.00 ppm
Gly (ppm) ([8]; 2 × 0.75 lb, 4 lf/Preboot, straw): 5.30 ppm
Gly (ppm) ([9]; 3 × 0.75, 2 lf/12 lf/12 lf + 30 d, beet): 6.60 ppm
Gly (ppm) ([9]; 3 × 0.75, 2 lf/12 lf/12 lf + 30 d, tops): 4.30 ppm
Gly (ppm) ([9]; 3 × 0.75 lb, 2 lf/6 lf/12 lf, beet): 0.50 ppm
Gly (ppm) ([9]; 3 × 0.75 lb, 2 lf/6 lf/12 lf, tops): 0.40 ppm
Gly (ppm) ([10]; 2 × 1.5 lb, 2 lf/row closure): 4.10 ppm
Gly (ppm) ([10]; 3 × 1.5 lb, 2 lf/row clo/PH): 8.60 ppm
In vitro EC90, ppm (Septoria): <100 ppm
In vitro EC90, ppm (Pseudocercosporella): <100 ppm
In vitro EC90, ppm (Botrytis): <100 ppm
In vitro EC90, ppm (Phytophthora): 1000 ppm
In vitro EC90, ppm (Rhizoctonia): 1000 ppm
In vitro EC90, ppm (Fusarium): 1000 ppm
In vitro EC90, ppm (Gaeumannomyces): 1000 ppm
In vitro EC90, ppm (Puccinia): 5000 ppm
In vitro EC90, ppm (Pyricularia): 5000 ppm
pustule development (Puccinia spores [11]; 12 days after inoculation, wheat treated with 1× spray, inoculated 1 day or 14 days after treatment, controls about 25% to about 30%): less than 1%
tissue concentration of glyphosate at which pustule development is prevented (Puccinia spores [11]; glyphosate tolerant wheat leaf): about 10 ppm
tissue glyphosate at which complete disease prevention was attained (Puccinia spores [12]; shielded (untreated) wheat leaf, spray application of ½× of Roundup, inoculated 1DAT): 1.3 ppm
disease incidence versus spray dose (Puccinia spores [12]; shielded wheat leaf, 11 days after inoculation, 0-1× spray): decrease in disease incidence with an increase in spray dose
development of pustules (rust spores; 1× glyphosate at 4DAI, lesions already present at treatment): no development of pustules
infection level (rust spores; wheat 3-leaf stage, 1× glyphosate after inoculation, untreated/surfactant between 10% and about 25%): either no infection or no progression to an existing infection
rust severity ([13]; RR soybean compared to conventional soybean, early season observations): less
delay of rust development ([13]; RR soybean sprayed at ~V4 stage, compared to conventional soy): 7 to 10 days
percent disease of Asian soybean rust (Asian soybean rust [14]; RR8000, Trt 2 glyp 1X every two weeks from V3, 14 d-1 spray): 23.3%
percent disease of Asian soybean rust (Asian soybean rust [14]; RR8000, Trt 2 glyp 1X every two weeks from V3, 28 d-2 sprays): 41.7%
percent disease of Asian soybean rust (Asian soybean rust [14]; RR8000, Trt 2 glyp 1X every two weeks from V3, 42 d-3 sprays): 48.3%
percent disease of Asian soybean rust (Asian soybean rust [14]; RR8000, Trt 2 glyp 1X every two weeks from V3, 56 d-4 sprays): 88.3%
percent disease of Asian soybean rust (Asian soybean rust [14]; RR8000, Trt 3 glyp 2X every two weeks from V3, 14 d-1 spray): 10.0%
percent disease of Asian soybean rust (Asian soybean rust [14]; RR8000, Trt 3 glyp 2X every two weeks from V3, 28 d-2 sprays): 10.0%
percent disease of Asian soybean rust (Asian soybean rust [14]; RR8000, Trt 3 glyp 2X every two weeks from V3, 42 d-3 sprays): 10.0%
percent disease of Asian soybean rust (Asian soybean rust [14]; RR8000, Trt 3 glyp 2X every two weeks from V3, 56 d-4 sprays): 30.0%
percent disease of Asian soybean rust (Asian soybean rust [14]; RR8045, Trt 2 glyp 1X every two weeks from V3, 14 d-1 spray): 50.0%
percent disease of Asian soybean rust (Asian soybean rust [14]; RR8045, Trt 2 glyp 1X every two weeks from V3, 28 d-2 sprays): 56.7%
percent disease of Asian soybean rust (Asian soybean rust [14]; RR8045, Trt 2 glyp 1X every two weeks from V3, 42 d-3 sprays): 71.7%
percent disease of Asian soybean rust (Asian soybean rust [14]; RR8045, Trt 2 glyp 1X every two weeks from V3, 56 d-4 sprays): 86.7%
percent disease of Asian soybean rust (Asian soybean rust [14]; RR8045, Trt 3 glyp 2X every two weeks from V3, 14 d-1 spray): 3.3%
percent disease of Asian soybean rust (Asian soybean rust [14]; RR8045, Trt 3 glyp 2X every two weeks from V3, 28 d-2 sprays): 10.0%
percent disease of Asian soybean rust (Asian soybean rust [14]; RR8045, Trt 3 glyp 2X every two weeks from V3, 42 d-3 sprays): 13.3%
percent disease of Asian soybean rust (Asian soybean rust [14]; RR8045, Trt 3 glyp 2X every two weeks from V3, 56 d-4 sprays): 73.3%
%_disease (Asian soybean rust [15]; RR8000, glyp 1X): 23.3%
%_disease (Asian soybean rust [15]; RR8000, glyp 2X): 10.0%
%_disease (Asian soybean rust [15]; RR8045, glyp 1X): 0.0%
%_disease (Asian soybean rust [15]; RR8045, glyp 2X): 1.7%
average disease rating ([16]; hybrid corn, treatment #1 (pre-inoculation), 2× rate (1.5 lb./A), 1=resistant, 9=susceptible, control 4.1): 3.6
disease rating ([16]; hybrid corn, treatment #1 (pre-inoculation), 3× rate (2.25 lb./A), control 4.1): 3.0
disease rating ([16]; hybrid corn, treatment #2 (14 days post inoculation), control 4.1): 4.1
disease rating ([16]; hybrid corn, treatment #3 (28 days post inoculation), control 4.1): 3.9
disease rating ([16]; inbred corn, post inoculation treatments, second value): 4.9
disease rating ([16]; inbred corn, post inoculation treatments): 4.4
average disease rating ([16]; inbred corn, treatment #1 (pre-inoculation), 2× rate, controls 5.0 and 4.9): 4.0
average disease rating ([16]; inbred corn, treatment #1 (pre-inoculation), 3× rate, controls 5.0 and 4.9): 3.2
wilt symptoms [17]: reduced symptoms
Ki expressed as glyphosate in plant tissues (corn EPSPS [18]): approximately 0.15 ppm
Ki (corn EPSPS [19]): 500 nM
